Source: patent US7115662B2, “Certain 5-alkyl-2-arylaminophenylacetic acids and derivatives” (Novartis AG, priority 1997, dated 2006)

Test system: gross gastric ulceration
Assay: gastric tolerability assay
Format: in vivo
Details: rat; 100 mg/kg p.o.; four hours after administration
Protocol: The gastric tolerability assay is used to assess gross ulceration in the rat, measured four hours after oral administration of the test compound. The test is carried out as follows: Rats are fasted overnight, administered compound in fortified cornstarch vehicle by gavage, and sacrificed by carbon dioxide inhalation four hours later. The stomachs are removed and gross gastric lesions counted and measured to give the total lesion length per rat. Each experiment contains the following groups (5–6 rats per group): vehicle control, test compounds, and diclofenac as a reference compound. Data are calculated as the mean number of ulcers in a group, the mean length of ulcers (mm) in the group and as the ulcer index (UI). UI=mean length of ulcers in a group×ulcer incidence where ulcer incidence is the fraction of animals in the group with lesions (100% incidence is 1).

Row | SMILES | gastric ulcerogenic effect
1 | CCc1ccc(Nc2c(F)c(F)cc(F)c2F)c(CC(=O)OCC(=O)O)c1 [6(a), carboxymethyl 5-ethyl-2-(2′,3′,5′,6′-tetrafluoroanilino)phenylacetate] | essentially free of any gastric ulcerogenic effect

Test system: intestinal permeability
Assay: intestinal tolerability (51Cr-EDTA intestinal permeability)
Format: in vivo
Details: rat; 30 mg/kg p.o.; 51Cr-EDTA urinary excretion over 24 h
Protocol: Intestinal tolerability can be determined by measuring the effect on intestinal permeability. Lack of increase in permeability is indicative of intestinal tolerability. The method used is a modification of a procedure by Davies, et al., Pharm. Res. 1994; 11:1652–1656 and is based on the fact that excretion of orally administered ^51Cr-EDTA, a marker of small intestinal permeability, is increased by NSAIDs. Groups of rats (≧12/group) are administered a single, oral dose of test compound or vehicle by gastric intubation. Immediately following compound dose, each rat is administered ^51Cr-EDTA (5 μCi/rat) by gastric intubation. The rats are placed in individual metabolic cages and given food and water ad libitum. Urine is collected over a 24 hour period. Twenty-four hours after administration of ^51Cr-EDTA the rats are sacrificed. To quantify compound effect on intestinal permeability, the excreted ^51Cr-EDTA measured in the urine of compound treated rats is compared to the excreted ^51Cr-EDTA measured in the urine of vehicle treated rats. Relative permeability is determined by calculating the activity present in each urine sample as a percent of the administered dose after correcting for background radiation.

Row | SMILES | effect on intestinal permeability
2 | CCc1ccc(Nc2c(F)c(F)cc(F)c2F)c(CC(=O)OCC(=O)O)c1 [6(a), carboxymethyl 5-ethyl-2-(2′,3′,5′,6′-tetrafluoroanilino)phenylacetate] | no effect or only a minimal effect

Test system: pain threshold in yeast-inflamed paw
Assay: Randall-Selitto paw pressure assay
Format: in vivo, rat
Details: male Wistar rats; 10 mg/kg orally; 1 h after dosing
Protocol: The analgesic activity of the compounds of the invention is determined using the well-known Randall-Selitto assay.
The Randall-Selitto paw pressure assay measures antinociception (analgesic activity) in inflamed tissue by comparing the pressure threshold in the inflamed paw of the rat after oral administration of test drug with that in the inflamed paw of rats administered corn starch vehicle orally.
Groups of 10 male Wistar rats weighing 40–50 gms are fasted overnight prior to testing. Hyperalgesia is induced by the injection of 0.1 ml of a 20% suspension of Brewer's yeast with a 26 gauge needle into the subplantar region of the right hindpaw. The left paw is not injected and is used as the control paw for determination of hyperalgesia. Vehicle (Fortified corn starch suspension 3%) at 10 ml/kg, reference compound (diclofenac is run in every experiment at the same dose as test compounds) and test compounds at different doses suspended in vehicle at 10 ml/kg are administered orally 2 hours after the yeast injection. The threshold for paw withdrawal is quantified with a Basile Analgesy-meter 1 hour after oral administration of test compounds. The nociceptive threshold is defined as the force in grams at which the rat withdraws its foot or vocalizes. Either vocalization or foot withdrawal is recorded as a response.
The data are analyzed by comparing the mean pain threshold of the corn starch vehicle-treated group for the inflamed and non-inflamed paws to that of individual drug-treated rats. Individual rats in the drug-treated groups and positive control (diclofenac) group are called reactors if the individual pain threshold in each paw exceeds the control group mean threshold by two standard deviations of that mean. The mean pain thresholds of the inflamed paw in the control group are compared to the individual pain thresholds of the inflamed paw in the test drug group. The non-inflamed control mean pressure threshold is compared to the non-inflamed individual pressure thresholds in the test groups. Results are expressed as number of reactors in each test group (n=10) for inflamed and non-inflamed paws. Percentages are calculated by dividing number of reactors by total number of rats used for a compound.

Row | SMILES | pain threshold in the inflamed paw | pain threshold in the non-inflamed paw
3 | CCc1ccc(Nc2c(F)c(F)cc(F)c2F)c(CC(=O)OCC(=O)O)c1 [6(a), carboxymethyl 5-ethyl-2-(2′,3′,5′,6′-tetrafluoroanilino)phenylacetate] | increase the pain threshold | no threshold elevation

Test system: not given
Assay: not given
Details: not given

Row | melting point [°C] | SMILES
4 | 151 to 153 | CCc1ccc(Nc2c(F)c(F)cc(F)c2F)c(CC(=O)OCC(=O)O)c1 [6(a), carboxymethyl 5-ethyl-2-(2′,3′,5′,6′-tetrafluoroanilino)phenylacetate]
5 | 153 to 156 | Cc1ccc(Nc2c(F)c(F)cc(F)c2F)c(CC(=O)O)c1 [Example 1(b), 5-methyl-2-(2′,3′,5′,6′-tetrafluoroanilino)phenylacetic acid]
6 | 168 to 170 | Cc1ccc(Nc2c(Cl)cccc2Cl)c(CC(=O)O)c1 [Example 1(c), 5-methyl-2-(2′,6′-dichloroanilino)phenylacetic acid]
7 | 179 to 182 | Cc1cc(Cl)c(Nc2ccc(C)cc2CC(=O)O)c(Cl)c1 [Example 1(e), 5-methyl-2-(2′,6′-dichloro-4′-methylanilino)phenylacetic acid]
8 | 138 to 140 | Cc1ccc(Nc2c(C)cccc2Cl)c(CC(=O)O)c1 [Example 1(f), 5-methyl-2-(2′-chloro-6′-methylanilino)phenylacetic acid]
9 | 178 to 180 | Cc1ccc(Nc2c(F)cc(Cl)cc2Cl)c(CC(=O)O)c1 [Example 1(h), 5-methyl-2-(2′-fluoro-4′,6′-dichloroanilino)phenylacetic acid]
10 | 154 to 156 | Cc1ccc(Nc2c(C)cc(F)cc2Cl)c(CC(=O)O)c1 [Example 1(i), 5-methyl-2-(2′-chloro-4′-fluoro-6′-methylanilino)phenylacetic acid]
11 | 180 to 182 | Cc1ccc(Nc2c(F)cc(O)cc2Cl)c(CC(=O)O)c1 [Example 1(j), 5-methyl-2-(2′-chloro-4′-hydroxy-6′-fluoroanilino)phenylacetic acid]
12 | 147 to 148 | CCc1ccc(Nc2c(F)cccc2Cl)c(CC(=O)O)c1 [Example 2(a), 5-ethyl-2-(2′-fluoro-6′-chloroanilino)phenylacetic acid]
13 | 125 to 126 | CCc1ccc(Nc2c(C)cccc2Cl)c(CC(=O)O)c1 [Example 2(b), 5-ethyl-2-(2′-chloro-6′-methylanilino)phenylacetic acid]
14 | 138 to 140 | CCc1ccc(Nc2c(F)ccc(F)c2F)c(CC(=O)O)c1 [Example 2(c), 5-ethyl-2-(2′,3′,6′-trifluoroanilino)phenylacetic acid]
15 | 131 to 132 | CCOc1c(F)c(F)c(Nc2ccc(CC)cc2CC(=O)O)c(F)c1F [Example 2(d), 5-ethyl-2-(2′,3′,5′,6′-tetrafluoro-4′-ethoxyanilino)phenylacetic acid]
16 | 160 to 162 | CCc1ccc(Nc2c(F)cc(F)cc2Cl)c(CC(=O)O)c1 [Example 2(e), 5-ethyl-2-(2′-chloro-4′,6′-difluoroanilino)phenylacetic acid]
17 | 169 to 171 | CCc1ccc(Nc2c(F)cc(Cl)cc2Cl)c(CC(=O)O)c1 [Example 2(f), 5-ethyl-2-(2′,4′-dichloro-6′-fluoroanilino)phenylacetic acid]
18 | 180 to 183 | CCc1ccc(Nc2c(C)cc(Cl)cc2Cl)c(CC(=O)O)c1 [Example 3(b), 5-ethyl-2-(2′,4′-dichloro-6′-methylanilino)phenylacetic acid]
19 | 133 to 136 | CCc1ccc(Nc2c(Cl)cccc2Cl)c(CC(=O)O)c1 [Example 3(c), 5-ethyl-2-(2′,6′-dichloroanilino)phenylacetic acid]
20 | 143 to 145 | CCc1ccc(Nc2c(C)cc(F)cc2F)c(CC(=O)O)c1 [Example 5(b), 5-ethyl-2-(2′,4′-difluoro-6′-methylanilino)phenylacetic acid]
21 | 151 to 154 | CCc1ccc(Nc2c(C)cc(F)cc2Cl)c(CC(=O)O)c1 [Example 5(c), 5-ethyl-2-(2′-chloro-4′-fluoro-6′-methylanilino)phenylacetic acid]
22 | 123 to 125 | CCc1ccc(Nc2c(C)cc(Cl)cc2Cl)c(CC(=O)OCC(=O)O)c1 [Example 6(b), carboxymethyl 5-ethyl-2-(2′,4′-dichloro-6′-methylanilino)phenylacetate]
23 | 124 to 126 | CCc1ccc(Nc2c(Cl)cccc2Cl)c(CC(=O)OCC(=O)O)c1 [Example 6(c), carboxymethyl 5-ethyl-2-(2′,6′-dichloroanilino)phenylacetate]
24 | 142 to 144 | CCc1ccc(Nc2c(F)cc(F)cc2Cl)c(CC(=O)OCC(=O)O)c1 [Example 6(d), carboxymethyl 5-ethyl-2-(2′,4′-difluoro-6′-chloroanilino)phenylacetate]
25 | 132 to 134 | CCc1ccc(Nc2c(F)cc(Cl)cc2Cl)c(CC(=O)OCC(=O)O)c1 [Example 6(e), carboxymethyl 5-ethyl-2-(2′,4′-dichloro-6′-fluoroanilino)phenylacetate]
26 | 106 to 108 | CCc1ccc(Nc2c(F)cccc2Cl)c(CC(=O)OCC(=O)O)c1 [Example 6(f), carboxymethyl 5-ethyl-2-(2′-chloro-6′-fluoroanilino)phenylacetate]
27 | 148 to 150 | Cc1ccc(Nc2c(F)cc(Cl)cc2Cl)c(CC(=O)OCC(=O)O)c1 [Example 6(g), carboxymethyl 5-methyl-2-(2′-fluoro-4′,6′-dichloroanilino)phenylacetate]
28 | 125 to 126 | Cc1ccc(Nc2c(Cl)cccc2Cl)c(CC(=O)OCC(=O)O)c1 [Example 6(h), carboxymethyl 5-methyl-2-(2′,6′-dichloroanilino)phenylacetate]
29 | 96 to 98 | Cc1ccc(Nc2c(F)cccc2Cl)c(CC(=O)OCC(=O)O)c1 [Example 6(i), carboxymethyl 5-methyl-2-(2′-chloro-6′-fluoroanilino)phenylacetate]
30 | 104 to 108 | CCc1ccc(Nc2c(F)c(F)cc(F)c2F)c(CC(=O)OC(C)(C)C(=O)O)c1 [Example 8, 1-carboxy-1-methylethyl 5-ethyl-2-(2′,3′,5′,6′-tetrafluoroanilino)phenylacetate]
31 | 155 to 156 | Cc1ccc(Nc2c(F)cccc2C(F)(F)F)c(CC(=O)O)c1 [Example 9(a), 5-methyl-2-(2′-fluoro-6′-trifluoromethylanilino)phenylacetic acid]
